In PubChem BioAssay (NCI) one finds GI50 and TGI data, which are given here for seven compounds.

Among the test systems are HS 578T breast; CAKI-1 renal; NCI-H226 lung; SK-MEL-5 melanoma; IGROV1 ovarian; NCI/ADR-RES ovarian; OVCAR-8 ovarian; NCI-H23 lung; SR leukemia; SK-OV-3 ovarian.
Holding throughout (assay): NCI-60 cell line screen, 48 h

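Step 1: Grow cells in 96-well plates. Step 2: Expose to compound for 48 hours at 5 concentrations. Step 3: Interpolate endpoints linearly; if unreached, use highest concentration. Here, GI50 denotes the concentration required for 50% inhibition of growth. TGI is the concentration that stops growth completely.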

Turning to `Cn1cc(S(=O)(=O)N2CCC3=Cc4c(cnn4-c4ccc(F)cc4)C[C@]3(C(=O)c3cc(C(F)(F)F)ccn3)C2)cn1`, the GI50 is 37.8 µM with HS 578T breast; 60.1 µM in the experiment with CAKI-1 renal; 81.1 µM in the experiment with NCI-H226 lung; 57.7 µM with SK-MEL-5 melanoma; 23.3 µM in the experiment with IGROV1 ovarian; > 100 µM with NCI/ADR-RES ovarian. In addition, the GI50 in the experiment with OVCAR-8 ovarian and in the experiment with NCI-H23 lung was > 100 µM in each case. Besides, the TGI in the experiment with HS 578T breast, in the experiment with CAKI-1 renal, with NCI-H226 lung, with SK-MEL-5 melanoma, with IGROV1 ovarian and in the experiment on NCI/ADR-RES ovarian was > 100 µM in each case. The TGI in the experiment with OVCAR-8 ovarian and in the experiment on NCI-H23 lung was > 100 µM in each case.
Turning to `Cc1cc(NCCCCNc2ccnc3cc(Cl)ccc23)nc(Nc2ccc(C(=O)N3CCCCC3)cc2)n1`, the GI50 in the experiment with CAKI-1 renal was 1.75 µM; with SR leukemia, 0.24 µM; in the experiment on NCI-H226 lung it was 2.62 µM; in the experiment on SK-MEL-5 melanoma, 1.7 µM; in the experiment on IGROV1 ovarian, 2.27 µM; in the experiment with NCI/ADR-RES ovarian it was 3.04 µM. The GI50 was 2.34 µM in the experiment on OVCAR-8 ovarian, 2.27 µM in the experiment with NCI-H23 lung and 2.78 µM with SK-OV-3 ovarian. Also, the TGI with CAKI-1 renal amounted to 3.47 µM; in the experiment with SR leukemia, 0.855 µM; in the experiment on NCI-H226 lung, 7.81 µM; in the experiment with SK-MEL-5 melanoma, 3.07 µM; in the experiment on IGROV1 ovarian it was 6.22 µM; in the experiment on NCI/ADR-RES ovarian, 11.4 µM. Also, the TGI in the experiment with OVCAR-8 ovarian amounted to 5.49 µM; with NCI-H23 lung, 5.73 µM; in the experiment with SK-OV-3 ovarian, 6.13 µM.
Consider `Oc1ccc(Oc2cnc3ccccc3n2)cc1`, for which the GI50 in the experiment with CAKI-1 renal is 29.5 µM; in the experiment on SR leukemia, 78.5 µM; in the experiment with NCI-H226 lung, > 100 µM; in the experiment on SK-MEL-5 melanoma, 55.7 µM; in the experiment on IGROV1 ovarian, > 100 µM; in the experiment on NCI/ADR-RES ovarian, > 100 µM. The GI50 in the experiment on OVCAR-8 ovarian, in the experiment on NCI-H23 lung and in the experiment with SK-OV-3 ovarian was > 100 µM each time. Besides, the TGI was 81.1 µM in the experiment with CAKI-1 renal; > 100 µM in the experiment with SR leukemia; > 100 µM in the experiment on NCI-H226 lung; > 100 µM in the experiment on SK-MEL-5 melanoma; > 100 µM with IGROV1 ovarian; > 100 µM with NCI/ADR-RES ovarian. Also, the TGI in the experiment with OVCAR-8 ovarian, in the experiment on NCI-H23 lung and in the experiment with SK-OV-3 ovarian was > 100 µM throughout.
In the case of `COc1cc(C(=O)O[C@H](C(N)=O)[C@]2(C)CO2)c2cccc(C)c2c1`, the GI50 is 0.13 µM in the experiment with HS 578T breast; < 0.0211 µM with CAKI-1 renal; < 0.0158 µM in the experiment on SK-MEL-5 melanoma; < 0.01 µM in the experiment with IGROV1 ovarian; 0.108 µM in the experiment on NCI/ADR-RES ovarian; < 0.01 µM in the experiment with OVCAR-8 ovarian. Moreover, the GI50 was < 0.0203 µM in the experiment on NCI-H23 lung and 1.45 µM in the experiment on SK-OV-3 ovarian. Further, the TGI in the experiment with HS 578T breast is 15.5 µM; with SK-MEL-5 melanoma, 0.0522 µM; in the experiment with IGROV1 ovarian, 0.0567 µM; with NCI/ADR-RES ovarian, 0.507 µM; in the experiment with OVCAR-8 ovarian it was 0.438 µM; in the experiment on SK-OV-3 ovarian it was 7.99 µM.
Take `N#CC(C#N)=C1CCCOc2c1ccc1ccccc21`: the GI50 is 33.4 µM in the experiment with HS 578T breast; > 100 µM in the experiment on CAKI-1 renal; > 100 µM in the experiment on IGROV1 ovarian; > 100 µM in the experiment on NCI/ADR-RES ovarian; > 100 µM with OVCAR-8 ovarian; > 100 µM in the experiment on NCI-H23 lung. Also, the GI50 with SK-OV-3 ovarian was > 100 µM. Also, the TGI with HS 578T breast, with CAKI-1 renal, in the experiment with IGROV1 ovarian, with NCI/ADR-RES ovarian, in the experiment on OVCAR-8 ovarian and with NCI-H23 lung was > 100 µM each time. For the same compound, the TGI in the experiment on SK-OV-3 ovarian was > 100 µM.
In the case of `CCOC(=O)C1=C(Nc2ccc(Br)cc2)OCC1=O`, the TGI in the experiment on CAKI-1 renal, in the experiment on SR leukemia, in the experiment with NCI-H226 lung, in the experiment with SK-MEL-5 melanoma, in the experiment on IGROV1 ovarian and in the experiment with OVCAR-8 ovarian was > 100 µM throughout. Besides, the TGI with NCI-H23 lung and in the experiment with SK-OV-3 ovarian was > 100 µM throughout.
As to `COc1cc(OC)c2sc(-c3ccc(-n4cncc4-c4cc(OC)c(OC)c(OC)c4)cc3)nc2c1`, the GI50 was 3.24 µM in the experiment with SR leukemia; 2.46 µM in the experiment on SK-MEL-5 melanoma; 5.87 µM in the experiment on IGROV1 ovarian; 5.65 µM in the experiment on NCI/ADR-RES ovarian; > 100 µM in the experiment on OVCAR-8 ovarian; 6.15 µM in the experiment with NCI-H23 lung. For the same compound, the GI50 in the experiment on SK-OV-3 ovarian is > 100 µM. The TGI in the experiment on SR leukemia, in the experiment on SK-MEL-5 melanoma, in the experiment with IGROV1 ovarian, in the experiment with NCI/ADR-RES ovarian, in the experiment with OVCAR-8 ovarian and in the experiment with NCI-H23 lung was > 100 µM in each case. Besides, the TGI in the experiment with SK-OV-3 ovarian is > 100 µM.
